Reference: patent US7148352B2, “Method of inhibiting neurotrophin-receptor binding” (Queen's University at Kingston, priority 1999, dated 2006)
“And” between values parts separate entries of the source, which are not always exact repeats. Equal values may be shown once.

How the values were obtained:
[1] = molecular target: T1, TrkA and p75^NTR (PC12 cells) (Mus musculus, UniProt P01139); experiment: 125I-NGF receptor binding to PC12 cells in the presence of competitor; set-up: species or system rat; details: compound 50 μM; 125I-NGF 1 nM; 2 h at 4° C.; average of three values
T1 construct: PC12 cells (rat pheochromocytoma cells expressing TrkA and p75^NTR; obtained from ATCC); host or cells: PC12 rat pheochromocytoma cells (intact, in suspension)
T1 sequence (P01139 122-241): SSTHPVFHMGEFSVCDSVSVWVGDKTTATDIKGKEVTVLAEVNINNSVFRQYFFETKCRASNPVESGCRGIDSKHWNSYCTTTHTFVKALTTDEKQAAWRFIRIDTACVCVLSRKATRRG
Procedure: (§1) The radio-iodination and receptor binding of NGF (Sutter et al., 1979) was performed with modifications (Ross et al., 1997) as follows: Evaluation of the ability of NCP compounds to inhibit TrkA and p75^NTR binding was determined by the binding of ^125I-NGF to PC12 cells (rat pheochromocytoma cells expressing TrkA and p75^NTR; obtained from ATCC) and PC12^nnr5 (rat pheochromocytoma cells expressing p75^NTR only; obtained from Dr. L. Greene, Columbia University, NY). The p75^NTR is in a low affinity state and a high affinity state, respectively, in these cell types (Ross et al., 1998). PC12 and PC12^nnr5 cells were grown in RPMI (Sigma) with 10% heat inactivated donor horse serum and 5% fetal calf serum. Cells were harvested by replacing the medium with calcium, magnesium-free balanced salt solution (Gey's solution) and incubating at 37° C. for 15 minutes. Cells were pelleted by centrifugation and suspended in HKR buffer (10 mM Hepes [pH 7.35] containing 125 mM NaCl, 4.8 mM KCl, 1.3 mM CaCl2, 1.2 mM MgSO4, 1.2 mM KH2PO4, 1 g/L glucose and 1 g/L BSA) at a cell concentration of 2×10^6/mL and kept at 4° C. Triplicate tubes were set up for total binding, non-specific binding and binding in the presence of candidate competitor molecule (i.e., a tube for each data point). Each tube contained ^125I-NGF (at 1 nM), 400,000 cells (for a final cell concentration of 10^6/mL) and NGF (50 nM, to define non-specific binding), as required. The tubes were incubated for 2 h at 4° C. and specific binding evaluated by measuring specifically bound DPM (Ross et al., 1997). Data were analysed and the results expressed as receptor binding observed in the presence of competitor (e.g. NCP compounds) as a percentage of receptor binding in the absence of a competitor.

[2] = tested on: T2, TrkA and p75^NTR (PC12 cells); experiment: as above; set-up: species or system rat; details: compound 50 μM; 125I-NGF 1 nM; 2 h at 4° C.; receptor binding as percentage of binding in absence of competitor
T2 construct: PC12 cells (rat pheochromocytoma cells expressing TrkA and p75^NTR; obtained from ATCC); host or cells: PC12 rat pheochromocytoma cells (intact, in suspension)
T2 sequence (P01139 122-241): as above
Procedure: as §1

[3] = tested on: p75^NTR (PC12^nnr5 cells, expressing p75^NTR only); experiment: 125I-NGF receptor binding to PC12^nnr5 cells in the presence of competitor; set-up: species or system rat; details: compound 50 μM, 125I-NGF 1 nM, 2 h at 4° C.; for nnr5 % of Max, Avg: average of three values; for nnr5 % of Max (individual determinations): receptor binding as percentage of binding in absence of competitor
Procedure: as §1

| Structure (SMILES) | PC12 % of Max, Avg [1] | PC12 % of Max (individual determinations) [2] | nnr5 % of Max, Avg [3] | nnr5 % of Max (individual determinations) [3] | melting point |
| --- | --- | --- | --- | --- | --- |
| O=C(O)c1cccc(N2C(=O)c3ccc([N+](=O)[O-])cc3C2=O)c1 [Compound 146, 4-nitro-N-(m-carboxyphenyl)phthalimide] | = 58 % of Max | 52 % of Max (2×) and 71 % of Max | = 44 % of Max | 48 % of Max and 43 % of Max and 42 % of Max | 306 to 308 °C |
| O=C(O)c1ccc(CN2C(=O)c3cccc4cc([N+](=O)[O-])cc(c34)C2=O)cc1 [Compound 208, 3-nitro-N-(p-carboxyphenylmethyl)-1,8-naphthalimide] | = 49 % of Max | 56 % of Max and 45 % of Max and 47 % of Max | = 83 % of Max | 103 % of Max and 87 % of Max and 58 % of Max |  |
| O=C(O)c1ccc(N2C(=O)c3cccc4c([N+](=O)[O-])ccc(c34)C2=O)cc1 [Compound 225, 4-nitro-N-(p-carboxyphenyl)-1,8-naphthalimide] | = 66 % of Max | 69 % of Max and 60 % of Max and 68 % of Max | = 56 % of Max | 49 % of Max and 50 % of Max and 68 % of Max |  |
| O=C(O)c1ccccc1N1C(=O)c2cccc([N+](=O)[O-])c2C1=O [Compound 127, 3-nitro-N-(o-carboxyphenyl)phthalimide] | = 118 % of Max | 140 % of Max and 101 % of Max and 114 % of Max | = 112 % of Max | 136 % of Max and 129 % of Max and 71 % of Max |  |
| O=C(O)CN1C(=O)c2cccc([N+](=O)[O-])c2C1=O [Compound 120, 3-nitro-N-(1-carboxymethyl)phthalimide] | = 109 % of Max | 133 % of Max and 92 % of Max and 103 % of Max | = 183 % of Max | 218 % of Max and 200 % of Max and 130 % of Max |  |
| O=C(O)c1ccc2c(c1)C(=O)N(c1ccccc1C(=O)O)C2=O [Compound 107, 4-carboxy-N-(o-carboxyphenyl)phthalimide] | = 100 % of Max | 111 % of Max and 86 % of Max and 103 % of Max | = 85 % of Max | 58 % of Max and 113 % of Max and 83 % of Max |  |
| O=C(O)CCCCCN1C(=O)c2ccc(C(=O)O)cc2C1=O [Compound 104, 4-carboxy-N-(5-carboxypentyl)phthalimide] | = 56 % of Max | 51 % of Max and 50 % of Max and 66 % of Max | = 37 % of Max | 30 % of Max and 65 % of Max and 17 % of Max |  |
| O=C(O)CCN1C(=O)c2ccc([N+](=O)[O-])cc2C1=O [Compound 141, 4-nitro-N-(2-carboxyethyl)phthalimide] | = 90 % of Max | 74 % of Max and 108 % of Max and 87 % of Max | = 96 % of Max | 98 % of Max and 114 % of Max and 77 % of Max |  |
| O=C(O)c1ccc(CN2C(=O)c3ccc(C(=O)O)cc3C2=O)cc1 [Compound 108, 4-carboxy-N-(p-carboxyphenylmethyl)phthalimide] | = 73 % of Max | 90 % of Max and 55 % of Max and 75 % of Max | = 93 % of Max | 135 % of Max and 77 % of Max and 66 % of Max |  |
| O=C(O)CN1C(=O)c2ccc(C(=O)O)cc2C1=O [Compound 100, 4-carboxy-N-(1-carboxymethyl)phthalimide] | = 116 % of Max | 102 % of Max and 108 % of Max and 137 % of Max | = 100 % of Max | 108 % of Max and 111 % of Max and 80 % of Max |  |
| Nc1ccc2c(c1)C(=O)N(c1cccc(C(=O)O)c1)C2=O [Compound 166, 4-amino-N-(m-carboxyphenyl)phthalimide] | = 57 % of Max | 43 % of Max and 58 % of Max and 71 % of Max | = 58 % of Max | 55 % of Max and 64 % of Max and 56 % of Max |  |
